Assay results reported in patent US20230141101A1, “PDE4 INHIBITOR COMPOUND AND MEDICAL USE THEREOF” (Suzhou Longbotai Pharmaceuticals Co., Ltd., priority 2020, published 2023).

Assays:
Format in all cases: biochemical
Conditions in all cases: 20 nM
PDE4A1A = molecular target: T1, PDE4A1A (Homo sapiens, UniProt P27815); assay: PDE4 inhibitory activity assay (FAM-cAMP enzymatic reaction), PDE4A1A
T1 construct: purchased BPS 60040
In short: (§1)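 Each isoform is incubated with test compound for 15 min at room temperature before FAM-cAMP substrate starts a 30-min reaction.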

PDE4B1 = molecular target: T2, PDE4B1 (Homo sapiens, UniProt Q07343); assay: PDE4 inhibitory activity assay (FAM-cAMP enzymatic reaction), PDE4B1
T2 construct: purchased BPS 60041
T2 sequence (Q07343 whole entry): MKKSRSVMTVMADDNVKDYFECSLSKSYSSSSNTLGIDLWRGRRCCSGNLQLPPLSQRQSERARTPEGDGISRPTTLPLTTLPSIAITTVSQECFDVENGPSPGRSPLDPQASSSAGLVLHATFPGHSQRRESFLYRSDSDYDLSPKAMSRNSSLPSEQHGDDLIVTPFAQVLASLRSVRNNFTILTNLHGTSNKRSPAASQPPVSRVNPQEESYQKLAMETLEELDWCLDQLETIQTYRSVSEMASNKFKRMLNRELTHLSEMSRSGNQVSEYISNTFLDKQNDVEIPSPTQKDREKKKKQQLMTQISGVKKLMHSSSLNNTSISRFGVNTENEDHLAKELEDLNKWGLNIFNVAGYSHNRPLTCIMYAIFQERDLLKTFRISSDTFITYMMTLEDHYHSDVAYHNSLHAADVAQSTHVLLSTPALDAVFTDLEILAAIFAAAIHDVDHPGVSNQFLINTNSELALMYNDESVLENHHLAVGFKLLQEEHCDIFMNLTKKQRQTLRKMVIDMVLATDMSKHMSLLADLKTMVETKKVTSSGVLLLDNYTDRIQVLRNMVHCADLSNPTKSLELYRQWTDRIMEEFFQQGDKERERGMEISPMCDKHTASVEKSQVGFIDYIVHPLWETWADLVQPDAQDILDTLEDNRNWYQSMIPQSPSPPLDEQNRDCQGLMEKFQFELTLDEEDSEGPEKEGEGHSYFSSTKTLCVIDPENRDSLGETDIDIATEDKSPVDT
In short: as §1

PDE4D2 = PDE4D2 (Homo sapiens, UniProt Q08499); assay: PDE4 inhibitory activity assay (FAM-cAMP enzymatic reaction), PDE4D2
PDE4D2, sequence (Q08499 303-809): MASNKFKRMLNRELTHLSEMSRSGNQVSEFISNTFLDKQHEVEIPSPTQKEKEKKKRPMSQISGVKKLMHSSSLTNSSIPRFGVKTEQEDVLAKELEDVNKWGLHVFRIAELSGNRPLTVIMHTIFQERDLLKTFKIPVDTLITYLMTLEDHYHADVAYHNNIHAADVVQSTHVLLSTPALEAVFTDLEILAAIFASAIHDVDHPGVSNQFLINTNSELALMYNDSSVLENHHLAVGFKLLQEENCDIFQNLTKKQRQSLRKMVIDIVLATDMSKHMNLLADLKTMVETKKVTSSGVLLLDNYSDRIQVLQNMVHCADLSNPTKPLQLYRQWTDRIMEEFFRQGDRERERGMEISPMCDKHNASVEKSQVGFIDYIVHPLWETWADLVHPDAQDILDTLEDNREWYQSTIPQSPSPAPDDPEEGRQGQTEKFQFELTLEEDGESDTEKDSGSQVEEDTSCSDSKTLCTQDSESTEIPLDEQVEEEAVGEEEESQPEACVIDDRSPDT
In short: as §1

T1 sequence (P27815 1-647 isoform P27815-4): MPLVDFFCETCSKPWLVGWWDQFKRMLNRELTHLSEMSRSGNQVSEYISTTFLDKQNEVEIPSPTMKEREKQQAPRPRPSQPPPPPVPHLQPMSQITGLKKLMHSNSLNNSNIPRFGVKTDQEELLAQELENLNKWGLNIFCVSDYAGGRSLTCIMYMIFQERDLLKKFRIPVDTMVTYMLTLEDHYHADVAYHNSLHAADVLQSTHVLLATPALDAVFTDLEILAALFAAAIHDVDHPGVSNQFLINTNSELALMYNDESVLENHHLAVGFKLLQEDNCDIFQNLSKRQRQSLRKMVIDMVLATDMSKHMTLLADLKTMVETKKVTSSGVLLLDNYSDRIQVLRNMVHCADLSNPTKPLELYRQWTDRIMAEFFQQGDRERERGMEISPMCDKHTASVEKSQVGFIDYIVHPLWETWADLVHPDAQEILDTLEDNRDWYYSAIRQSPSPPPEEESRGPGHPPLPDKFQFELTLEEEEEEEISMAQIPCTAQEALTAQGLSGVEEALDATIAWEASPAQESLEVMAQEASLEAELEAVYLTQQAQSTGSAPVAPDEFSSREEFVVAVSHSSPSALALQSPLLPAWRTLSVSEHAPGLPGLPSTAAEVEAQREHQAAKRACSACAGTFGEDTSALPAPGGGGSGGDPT

CCOc1nc([C@@H](CS(C)(=O)=O)n2c(=O)[nH]c3cc(-c4cccc(C)c4C)cnc32)ccc1OC [Ex. 103, (S)-6-(2,3-dimethylphenyl)-3-(1-(6-ethoxy-5-methoxypyridin-2-yl)-2-(methylsulfonyl)ethyl)-1H-imidazo[4,5-b]pyridin-2(3H)-one]
+: PDE4 A1 inhibitory effect at 20 nM (PDE4A1A) | PDE4 B1 inhibitory effect at 20 nM (PDE4B1) | PDE4 D2 inhibitory effect at 20 nM (PDE4D2)

CCOc1nc([C@@H](CS(C)(=O)=O)n2c(=O)n(C)c3cc(-c4cccc(C)c4C)cnc32)ccc1OC [Ex. 104, (S)-6-(2,3-dimethylphenyl)-3-(1-(6-ethoxy-5-methoxypyridin-2-yl)-2-(methylsulfonyl)ethyl)-1-methyl-1H-imidazo[4,5-b]pyridin-2(3H)-one]
+: PDE4 A1 inhibitory effect at 20 nM (PDE4A1A) | PDE4 B1 inhibitory effect at 20 nM (PDE4B1) | PDE4 D2 inhibitory effect at 20 nM (PDE4D2)

CCOc1nc([C@@H](CS(C)(=O)=O)n2c(=O)[nH]c3cc(-c4c(C)cccc4C)cnc32)ccc1OC [Ex. 105, (S)-6-(2,6-dimethylphenyl)-3-(1-(6-ethoxy-5-methoxypyridin-2-yl)-2-(methylsulfonyl)ethyl)-1H-imidazo[4,5-b]pyridin-2(3H)-one]
+: PDE4 A1 inhibitory effect at 20 nM (PDE4A1A) | PDE4 B1 inhibitory effect at 20 nM (PDE4B1) | PDE4 D2 inhibitory effect at 20 nM (PDE4D2)

CCOc1nc([C@@H](CS(C)(=O)=O)n2c(=O)n(C)c3cc(-c4c(C)cccc4C)cnc32)ccc1OC [Ex. 106, (S)-6-(2,6-dimethylphenyl)-3-(1-(6-ethoxy-5-methoxypyridin-2-yl)-2-(methylsulfonyl)ethyl)-1-methyl-1H-imidazo[4,5-b]pyridin-2(3H)-one]
+: PDE4 A1 inhibitory effect at 20 nM (PDE4A1A) | PDE4 B1 inhibitory effect at 20 nM (PDE4B1) | PDE4 D2 inhibitory effect at 20 nM (PDE4D2)

CCOc1nc([C@@H](CS(C)(=O)=O)n2c(=O)[nH]c3cc(-c4ccc(F)cc4C)cnc32)ccc1OC [Ex. 107, (S)-6-(4-fluoro-2-methylphenyl)-3-(1-(6-ethoxy-5-methoxypyridin-2-yl)-2-(methylsulfonyl)ethyl)-1H-imidazo[4,5-b]pyridin-2(3H)-one]
+: PDE4 A1 inhibitory effect at 20 nM (PDE4A1A) | PDE4 B1 inhibitory effect at 20 nM (PDE4B1) | PDE4 D2 inhibitory effect at 20 nM (PDE4D2)

CCOc1nc([C@@H](CS(C)(=O)=O)n2c(=O)n(C)c3cc(-c4ccc(F)cc4C)cnc32)ccc1OC [Ex. 108, (S)-6-(4-fluoro-2-methylphenyl)-3-(1-(6-ethoxy-5-methoxypyridin-2-yl)-2-(methylsulfonyl)ethyl)-1-methyl-1H-imidazo[4,5-b]pyridin-2(3H)-one]
+: PDE4 A1 inhibitory effect at 20 nM (PDE4A1A) | PDE4 B1 inhibitory effect at 20 nM (PDE4B1) | PDE4 D2 inhibitory effect at 20 nM (PDE4D2)

CCOc1nc([C@@H](CS(C)(=O)=O)n2c(=O)[nH]c3cc(-c4cc(F)ccc4C)cnc32)ccc1OC [Ex. 109, (S)-6-(5-fluoro-2-methylphenyl)-3-(1-(6-ethoxy-5-methoxypyridin-2-yl)-2-(methylsulfonyl)ethyl)-1H-imidazo[4,5-b]pyridin-2(3H)-one]
+: PDE4 A1 inhibitory effect at 20 nM (PDE4A1A) | PDE4 B1 inhibitory effect at 20 nM (PDE4B1) | PDE4 D2 inhibitory effect at 20 nM (PDE4D2)

CCOc1nc([C@@H](CS(C)(=O)=O)n2c(=O)n(C)c3cc(-c4cc(F)ccc4C)cnc32)ccc1OC [Ex. 110, (S)-6-(5-fluoro-2-methylphenyl)-3-(1-(6-ethoxy-5-methoxypyridin-2-yl)-2-(methylsulfonyl)ethyl)-1-methyl-1H-imidazo[4,5-b]pyridin-2(3H)-one]
+: PDE4 A1 inhibitory effect at 20 nM (PDE4A1A) | PDE4 B1 inhibitory effect at 20 nM (PDE4B1) | PDE4 D2 inhibitory effect at 20 nM (PDE4D2)

CCOc1nc([C@@H](CS(C)(=O)=O)n2c(=O)[nH]c3cc(-c4cccc(F)c4C)cnc32)ccc1OC [Ex. 111, (S)-6-(3-fluoro-2-methylphenyl)-3-(1-(6-ethoxy-5-methoxypyridin-2-yl)-2-(methylsulfonyl)ethyl)-1H-imidazo[4,5-b]pyridin-2(3H)-one]
+: PDE4 A1 inhibitory effect at 20 nM (PDE4A1A) | PDE4 B1 inhibitory effect at 20 nM (PDE4B1) | PDE4 D2 inhibitory effect at 20 nM (PDE4D2)

CCOc1nc([C@@H](CS(C)(=O)=O)n2c(=O)n(C)c3cc(-c4cccc(F)c4C)cnc32)ccc1OC [Ex. 112, (S)-6-(3-fluoro-2-methylphenyl)-3-(1-(6-ethoxy-5-methoxypyridin-2-yl)-2-(methylsulfonyl)ethyl)-1-methyl-1H-imidazo[4,5-b]pyridin-2(3H)-one]
+: PDE4 A1 inhibitory effect at 20 nM (PDE4A1A) | PDE4 B1 inhibitory effect at 20 nM (PDE4B1) | PDE4 D2 inhibitory effect at 20 nM (PDE4D2)

CCOc1nc([C@@H](CS(C)(=O)=O)n2c(=O)[nH]c3cc(-c4cc(C)ccc4F)cnc32)ccc1OC [Ex. 113, (S)-6-(2-fluoro-5-methylphenyl)-3-(1-(6-ethoxy-5-methoxypyridin-2-yl)-2-(methylsulfonyl)ethyl)-1H-imidazo[4,5-b]pyridin-2(3H)-one]
+: PDE4 A1 inhibitory effect at 20 nM (PDE4A1A) | PDE4 B1 inhibitory effect at 20 nM (PDE4B1) | PDE4 D2 inhibitory effect at 20 nM (PDE4D2)

CCOc1nc([C@@H](CS(C)(=O)=O)n2c(=O)n(C)c3cc(-c4cc(C)ccc4F)cnc32)ccc1OC [Ex. 114, (S)-6-(2-fluoro-5-methylphenyl)-3-(1-(6-ethoxy-5-methoxypyridin-2-yl)-2-(methylsulfonyl)ethyl)-1-methyl-1H-imidazo[4,5-b]pyridin-2(3H)-one]
+: PDE4 A1 inhibitory effect at 20 nM (PDE4A1A) | PDE4 B1 inhibitory effect at 20 nM (PDE4B1) | PDE4 D2 inhibitory effect at 20 nM (PDE4D2)

CCOc1nc([C@@H](CS(C)(=O)=O)n2c(=O)[nH]c3cc(-c4ccc(C)cc4F)cnc32)ccc1OC [Ex. 115]
+: PDE4 A1 inhibitory effect at 20 nM (PDE4A1A) | PDE4 B1 inhibitory effect at 20 nM (PDE4B1) | PDE4 D2 inhibitory effect at 20 nM (PDE4D2)

CCOc1nc([C@@H](CS(C)(=O)=O)n2c(=O)n(C)c3cc(-c4ccc(C)cc4F)cnc32)ccc1OC [Ex. 116, (S)-6-(2-fluoro-4-methylphenyl)-3-(1-(6-ethoxy-5-methoxypyridin-2-yl)-2-(methylsulfonyl)ethyl)-1-methyl-1H-imidazo[4,5-b]pyridin-2(3H)-one]
+: PDE4 A1 inhibitory effect at 20 nM (PDE4A1A) | PDE4 B1 inhibitory effect at 20 nM (PDE4B1) | PDE4 D2 inhibitory effect at 20 nM (PDE4D2)

CCOc1nc([C@@H](CS(C)(=O)=O)n2c(=O)[nH]c3cc(-c4cc(F)ccc4OC)cnc32)ccc1OC [Ex. 117, (S)-6-(5-fluoro-2-methoxyphenyl)-3-(1-(6-ethoxy-5-methoxypyridin-2-yl)-2-(methylsulfonyl)ethyl)-1H-imidazo[4,5-b]pyridin-2(3H)-one]
+: PDE4 A1 inhibitory effect at 20 nM (PDE4A1A) | PDE4 B1 inhibitory effect at 20 nM (PDE4B1) | PDE4 D2 inhibitory effect at 20 nM (PDE4D2)

CCOc1nc([C@@H](CS(C)(=O)=O)n2c(=O)n(C)c3cc(-c4cc(F)ccc4OC)cnc32)ccc1OC [Ex. 118, (S)-6-(5-fluoro-2-methoxyphenyl)-3-(1-(6-ethoxy-5-methoxypyridin-2-yl)-2-(methylsulfonyl)ethyl)-1-methyl-1H-imidazo[4,5-b]pyridin-2(3H)-one]
+: PDE4 A1 inhibitory effect at 20 nM (PDE4A1A) | PDE4 B1 inhibitory effect at 20 nM (PDE4B1) | PDE4 D2 inhibitory effect at 20 nM (PDE4D2)

CCOc1nc([C@@H](CS(C)(=O)=O)n2c(=O)[nH]c3cc(-c4ccc(F)cc4OC)cnc32)ccc1OC [Ex. 119, (S)-6-(4-fluoro-2-methoxyphenyl)-3-(1-(6-ethoxy-5-methoxypyridin-2-yl)-2-(methylsulfonyl)ethyl)-1H-imidazo[4,5-b]pyridin-2(3H)-one]
+: PDE4 A1 inhibitory effect at 20 nM (PDE4A1A) | PDE4 B1 inhibitory effect at 20 nM (PDE4B1) | PDE4 D2 inhibitory effect at 20 nM (PDE4D2)

CCOc1nc([C@@H](CS(C)(=O)=O)n2c(=O)n(C)c3cc(-c4ccc(F)cc4OC)cnc32)ccc1OC [Ex. 120, (S)-6-(4-fluoro-2-methoxyphenyl)-3-(1-(6-ethoxy-5-methoxypyridin-2-yl)-2-(methylsulfonyl)ethyl)-1-methyl-1H-imidazo[4,5-b]pyridin-2(3H)-one]
+: PDE4 A1 inhibitory effect at 20 nM (PDE4A1A) | PDE4 B1 inhibitory effect at 20 nM (PDE4B1) | PDE4 D2 inhibitory effect at 20 nM (PDE4D2)

CCOc1nc([C@@H](CS(C)(=O)=O)n2c(=O)[nH]c3cc(-c4c(F)cccc4OC)cnc32)ccc1OC [Ex. 121, (S)-6-(6-fluoro-2-methoxyphenyl)-3-(1-(6-ethoxy-5-methoxypyridin-2-yl)-2-(methylsulfonyl)ethyl)-1H-imidazo[4,5-b]pyridin-2(3H)-one]
+: PDE4 A1 inhibitory effect at 20 nM (PDE4A1A) | PDE4 B1 inhibitory effect at 20 nM (PDE4B1) | PDE4 D2 inhibitory effect at 20 nM (PDE4D2)

CCOc1nc([C@@H](CS(C)(=O)=O)n2c(=O)[nH]c3cc(-c4ccccn4)cnc32)ccc1OC [Ex. 122, (S)-6-(pyridin-2-yl)-3-(1-(6-ethoxy-5-methoxypyridin-2-yl)-2-(methylsulfonyl)ethyl)-1H-imidazo[4,5-b]pyridin-2(3H)-one]
+: PDE4 A1 inhibitory effect at 20 nM (PDE4A1A) | PDE4 B1 inhibitory effect at 20 nM (PDE4B1) | PDE4 D2 inhibitory effect at 20 nM (PDE4D2)

CCOc1nc([C@@H](CS(C)(=O)=O)n2c(=O)n(C)c3cc(-c4ccccn4)cnc32)ccc1OC [Ex. 123, (S)-3-(1-(6-ethoxy-5-methoxypyridin-2-yl)-2-(methylsulfonyl)ethyl)-1-methyl-6-(pyridin-2-yl)-1H-imidazo[4,5-b]pyridin-2(3H)-one]
+: PDE4 A1 inhibitory effect at 20 nM (PDE4A1A) | PDE4 B1 inhibitory effect at 20 nM (PDE4B1) | PDE4 D2 inhibitory effect at 20 nM (PDE4D2)
